In PubChem BioAssay AID330 (DTP/NCI, 2004):
“And” between values parts separate entries of the source, which are not always exact repeats. Equal entries are not always repeated. Toxic doses and inconclusive results are not listed.

Test system: P388 leukemia ip, CD2F1 mice, survival T/C
Assay: NCI In Vivo Anticancer Drug Screen. Data for tumor model P388 Leukemia (intraperitoneal) in CD2F1 (CDF1) mice
Conditions: endpoint: median survival time, higher = longer survival
Outline: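 Mice carrying the transplanted tumor received test compound or vehicle. Survival was recorded in each group, and the value is the treated-group measurement divided by that of the vehicle-treated control group.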

[1] = dose: 50.0 mg/kg/injection, schedule: Q01DX009 (ip), vehicle: saline with Tween-80
[2] = dose: 100.0 mg/kg/injection, schedule: Q01DX009 (ip), vehicle: saline with Tween-80
[3] = dose: 200.0 mg/kg/injection, schedule: Q01DX009 (ip), vehicle: saline with Tween-80
[4] = dose: 400.0 mg/kg/injection, schedule: Q01DX009 (ip), vehicle: saline with Tween-80
[5] = dose: 50.0 mg/kg/injection, schedule: Q04DX003 (ip), vehicle: saline with Tween-80
[6] = dose: 100.0 mg/kg/injection, schedule: Q04DX003 (ip), vehicle: saline with Tween-80
[7] = dose: 50.0 mg/kg/injection, schedule: Q01DX009 (ip), vehicle: Klucel (hydroxypropylcellulose) (HPC)
[8] = dose: 100.0 mg/kg/injection, schedule: Q01DX009 (ip), vehicle: Klucel (hydroxypropylcellulose) (HPC)
[9] = dose: 200.0 mg/kg/injection, schedule: Q01DX009 (ip), vehicle: Klucel (hydroxypropylcellulose) (HPC)
[10] = dose: 50.0 mg/kg/injection, schedule: Q01DX005 (ip), vehicle: saline with Tween-80
[11] = dose: 100.0 mg/kg/injection, schedule: Q01DX005 (ip), vehicle: saline with Tween-80
[12] = dose: 200.0 mg/kg/injection, schedule: Q01DX005 (ip), vehicle: saline with Tween-80
[13] = dose: 60.0 mg/kg/injection, schedule: Q01DX005 (ip), vehicle: saline with Tween-80
[14] = dose: 120.0 mg/kg/injection, schedule: Q01DX005 (ip), vehicle: saline with Tween-80
[15] = dose: 240.0 mg/kg/injection, schedule: Q01DX005 (ip), vehicle: saline with Tween-80
[16] = dose: 50.0 mg/kg/injection, schedule: Q01DX005 (ip), vehicle: Klucel (hydroxypropylcellulose) (HPC)
[17] = dose: 100.0 mg/kg/injection, schedule: Q01DX005 (ip), vehicle: Klucel (hydroxypropylcellulose) (HPC)
[18] = dose: 200.0 mg/kg/injection, schedule: Q01DX005 (ip), vehicle: Klucel (hydroxypropylcellulose) (HPC)
[19] = dose: 12.5 mg/kg/injection, schedule: Q01DX009 (ip), vehicle: saline with Tween-80
[20] = dose: 25.0 mg/kg/injection, schedule: Q01DX009 (ip), vehicle: saline with Tween-80
[21] = dose: 50.0 mg/kg/injection, schedule: Q01DX009 (ip), vehicle: saline
[22] = dose: 100.0 mg/kg/injection, schedule: Q01DX009 (ip), vehicle: saline
[23] = dose: 200.0 mg/kg/injection, schedule: Q04DX003 (ip), vehicle: saline with Tween-80
[24] = dose: 400.0 mg/kg/injection, schedule: Q04DX003 (ip), vehicle: saline with Tween-80

Structure (SMILES): COC1OC2COC(c3ccccc3)OC2C(O)C1O (centres undefined)
- T/C [1]: 100 % of control
- T/C [2]: 107 % of control
- T/C [3]: 105 % of control
- T/C [4]: 107 % of control

Structure (SMILES): Cc1nc2c([N+](=O)[O-])c(Nc3ccccc3)c([N+](=O)[O-])cc2[nH]1
- T/C (dose: 25.0 mg/kg/injection, schedule: Q04DX003 (ip), vehicle: saline with Tween-80): 92 % of control
- T/C [5]: 101 % of control
- T/C [6]: 104 % of control and 90 % of control

Structure (SMILES): COc1ccc(CCNC2=C(/C=C\C(=O)O)C(=O)CC2)cc1OC
- T/C (dose: 25.0 mg/kg/injection, schedule: Q01DX001 (ip), vehicle: Klucel (hydroxypropylcellulose) (HPC)): 95 % of control
- T/C (dose: 50.0 mg/kg/injection, schedule: Q01DX001 (ip), vehicle: Klucel (hydroxypropylcellulose) (HPC)): 100 % of control
- T/C (dose: 100.0 mg/kg/injection, schedule: Q01DX001 (ip), vehicle: Klucel (hydroxypropylcellulose) (HPC)): 87 % of control and 92 % of control

Structure (SMILES): c1ccc(-c2cn3ccccc3n2)cc1
- T/C [7]: 98 % of control
- T/C [8]: 108 % of control
- T/C [9]: 117 % of control

Structure (SMILES): Cc1nn(C(N)=S)c(C)c1N=Nc1ccc(O)cc1
- T/C [10]: 103 % of control
- T/C [11]: 103 % of control
- T/C [12]: 107 % of control

Structure (SMILES): CC(=O)C1=C(O)C(=O)N(c2ccccc2)C1=O
- T/C [10]: 97 % of control
- T/C [11]: 102 % of control
- T/C [12]: 100 % of control

Structure (SMILES): Cc1c(O)c2ccccc2c2c1sc(NCCO)[n+]2C
- T/C (dose: 15.0 mg/kg/injection, schedule: Q01DX005 (ip), vehicle: saline with Tween-80): 100 % of control
- T/C (dose: 30.0 mg/kg/injection, schedule: Q01DX005 (ip), vehicle: saline with Tween-80): 105 % of control
- T/C [13]: 98 % of control and 99 % of control

Structure (SMILES): CCOC(=O)NC(c1ccc(C(NC(=O)OCC)P(=O)(O)NC23CC4CC(CC(C4)C2)C3)cc1)P(=O)(O)NC12CC3CC(CC(C3)C1)C2 (centres undefined)
- T/C [13]: 105 % of control
- T/C [14]: 105 % of control
- T/C [15]: 98 % of control

Structure (SMILES): C/C=C(\C)C(=O)N/N=C/c1cccnc1
- T/C [16]: 103 % of control
- T/C [17]: 103 % of control
- T/C [18]: 103 % of control

Structure (SMILES): COC(=O)C1=[N+]([O-])OC(C(=O)OC)C1c1ccc(OC)cc1 (centres undefined)
- T/C [10]: 97 % of control
- T/C [11]: 97 % of control
- T/C [12]: 98 % of control

Structure (SMILES): COc1cc2c(c(OC)c1O)-c1ccc(OC)c(=O)cc1[C@@H](NC(C)=O)CC2
- T/C (dose: 10.0 mg/kg/injection, schedule: Q01DX009 (ip), vehicle: Klucel (hydroxypropylcellulose) (HPC)): 150 % of control and 175 % of control

Structure (SMILES): CCCC(C(CC)CNC(=O)Nc1cccc2ccccc12)N(C)C(=O)Nc1cccc2ccccc12 (centres undefined)
- T/C [1]: 93 % of control
- T/C [2]: 92 % of control
- T/C [3]: 94 % of control
- T/C [4]: 99 % of control

Structure (SMILES): O=C(O)C[CH2][Sn](=[O])[CH2]CC(=O)O
- T/C [16]: 101 % of control
- T/C [17]: 101 % of control
- T/C [18]: 102 % of control

Structure (SMILES): Cc1cc2nc(SCC(N)=O)nn2c(C)n1
- T/C [13]: 100 % of control
- T/C [14]: 100 % of control
- T/C [15]: 99 % of control

Structure (SMILES): CCCCOc1ncnc2nc[nH]c12
- T/C [16]: 103 % of control
- T/C [17]: 103 % of control

Structure (SMILES): COc1ccc(OC)c(NC2=C(Cl)C(=O)C(Nc3cc(OC)ccc3OC)=C(Cl)C2=O)c1
- T/C [19]: 98 % of control
- T/C [20]: 97 % of control
- T/C [1]: 90 % of control
- T/C [2]: 87 % of control
- T/C [3]: 91 % of control

Structure (SMILES): NNC(=O)CNc1ccccc1Br
- T/C (dose: 60.0 mg/kg/injection, schedule: Q01DX005 (ip), vehicle: Klucel (hydroxypropylcellulose) (HPC)): 97 % of control
- T/C (dose: 120.0 mg/kg/injection, schedule: Q01DX005 (ip), vehicle: Klucel (hydroxypropylcellulose) (HPC)): 98 % of control

Structure (SMILES): C[n+]1cccc(C(=S)[S-])c1
- T/C [19]: 100 % of control
- T/C [20]: 95 % of control
- T/C [1]: 90 % of control

Structure (SMILES): Brc1cnc2nc(Cc3cccc4ccccc34)[nH]c2c1
- T/C (dose: 100.0 mg/kg/injection, schedule: Q01DX001 (ip), vehicle: saline with Tween-80): 109 % of control
- T/C (dose: 200.0 mg/kg/injection, schedule: Q01DX001 (ip), vehicle: saline with Tween-80): 103 % of control
- T/C (dose: 400.0 mg/kg/injection, schedule: Q01DX001 (ip), vehicle: saline with Tween-80): 97 % of control

Structure (SMILES): CCC12C(=O)C(CC)(C(c3ccccc3)=C1c1ccccc1)C1OC(=O)OC12 (centres undefined)
- T/C [1]: 97 % of control
- T/C [2]: 91 % of control
- T/C [3]: 86 % of control

Structure (SMILES): CC(C)CC(=O)O[C@@H]1OC=C(COC2OC(CO)C(O)C(O)C2O)[C@H]2CC(=O)[C@@H](C)[C@@H]12 (some centres undefined)
- T/C (dose: 8.0 mg/kg/injection, schedule: Q01DX005 (ip), vehicle: saline): 118 % of control
- T/C (dose: 16.0 mg/kg/injection, schedule: Q01DX005 (ip), vehicle: saline): 116 % of control
- T/C (dose: 32.0 mg/kg/injection, schedule: Q01DX005 (ip), vehicle: saline): 107 % of control
- T/C (dose: 64.0 mg/kg/injection, schedule: Q01DX005 (ip), vehicle: saline): 110 % of control

Structure (SMILES): Cc1n(-c2ccccc2)nn[n+]1C
- T/C (dose: 12.5 mg/kg/injection, schedule: Q01DX009 (ip), vehicle: Klucel (hydroxypropylcellulose) (HPC)): 116 % of control and 92 % of control
- T/C (dose: 25.0 mg/kg/injection, schedule: Q01DX009 (ip), vehicle: Klucel (hydroxypropylcellulose) (HPC)): 101 % of control
- T/C [7]: 103 % of control and 91 % of control

Structure (SMILES): O=C(O)/C=C\C(=O)O
- T/C (dose: 1.5 mg/kg/injection, schedule: Q01DX009 (ip), vehicle: saline with Tween-80): 95 % of control
- T/C (dose: 3.0 mg/kg/injection, schedule: Q01DX009 (ip), vehicle: saline with Tween-80): 100 % of control
- T/C (dose: 6.0 mg/kg/injection, schedule: Q01DX009 (ip), vehicle: saline with Tween-80): 109 % of control
- T/C (dose: 25.0 mg/kg/injection, schedule: Q01DX009 (ip), vehicle: saline): 95 % of control
- T/C [21]: 104 % of control
- T/C [22]: 95 % of control

Structure (SMILES): Cc1ccc2nc(CC(O)(c3ccccc3)c3ccccc3)ccc2c1
- T/C [1]: 110 % of control
- T/C [2]: 95 % of control
- T/C [3]: 94 % of control

Structure (SMILES): CC1(C)CC(=N/O)/C(=N/O)C(=N\NC(N)=S)/C1
- T/C [13]: 97 % of control
- T/C [14]: 94 % of control
- T/C [15]: 97 % of control

Structure (SMILES): Cc1nc([Se]c2nc(C)n3ccncc23)c2cnccn12
- T/C (dose: 37.5 mg/kg/injection, schedule: Q01DX001 (ip), vehicle: saline with Tween-80): 95 % of control
- T/C (dose: 75.0 mg/kg/injection, schedule: Q01DX001 (ip), vehicle: saline with Tween-80): 100 % of control
- T/C (dose: 150.0 mg/kg/injection, schedule: Q01DX001 (ip), vehicle: saline with Tween-80): 100 % of control

Structure (SMILES): NC1CN2CCC1CC2 (centres undefined)
- T/C [21]: 104 % of control
- T/C [22]: 107 % of control
- T/C (dose: 200.0 mg/kg/injection, schedule: Q01DX009 (ip), vehicle: saline): 98 % of control

Structure (SMILES): CC(=O)Nc1c(Cl)c(Cl)c2c(c1Cl)Cc1cc(Cl)c(Cl)cc1-2
- T/C [19]: 100 % of control
- T/C [20]: 100 % of control
- T/C [1]: 95 % of control
- T/C [6]: 109 % of control
- T/C [23]: 100 % of control
- T/C [24]: 104 % of control

Structure (SMILES): Cc1ccc2c(c1)Sc1ccc3ccccc3c1N2
- T/C [2]: 100 % of control
- T/C [6]: 90 % of control
- T/C [3]: 109 % of control
- T/C [23]: 100 % of control
- T/C [4]: 113 % of control
- T/C [24]: 100 % of control

Structure (SMILES): COc1cc(/C=N\NC(=O)OC(C)(C)C)cc(OC)c1OC
- T/C [5]: 100 % of control
- T/C [6]: 91 % of control
- T/C [23]: 91 % of control

Structure (SMILES): CCOC(=O)c1cc2c(oc1=O)-c1cc(C)ccc1OC2C (centres undefined)
- T/C [13]: 104 % of control
- T/C [14]: 110 % of control
- T/C [15]: 105 % of control

Structure (SMILES): C=C(C)[C@@H]1CC[C@](C)(CCC#N)/C(=N\NC(N)=O)C1
- T/C (dose: 100.0 mg/kg/injection, schedule: Q04DX003 (ip), vehicle: Klucel (hydroxypropylcellulose) (HPC)): 99 % of control
- T/C (dose: 200.0 mg/kg/injection, schedule: Q04DX003 (ip), vehicle: Klucel (hydroxypropylcellulose) (HPC)): 102 % of control
- T/C (dose: 400.0 mg/kg/injection, schedule: Q04DX003 (ip), vehicle: Klucel (hydroxypropylcellulose) (HPC)): 89 % of control

Structure (SMILES): Brc1ccc(-c2cc(-c3cccs3)cc(-c3ccccc3)n2)cc1
- T/C [7]: 100 % of control
- T/C [8]: 108 % of control
- T/C [9]: 101 % of control
